Publication doi:10.1101/2020.09.15.275891v2 (biorxiv, 2020)

What was measured:
in vitro = conditions: human, caco-2 cells
mature MHV M^pro = mature MHV M^pro (Murine hepatitis virus strain A59, UniProt P0C6X9); assay: fluorogenic peptide cleavage; format: biochemical
mature SARSCoV2 M^pro = mature SARSCoV2 M^pro (Severe acute respiratory syndrome coronavirus 2, UniProt P0DTD1); assay: biochemical

mature MHV M^pro, sequence (P0C6X9 3334-3635): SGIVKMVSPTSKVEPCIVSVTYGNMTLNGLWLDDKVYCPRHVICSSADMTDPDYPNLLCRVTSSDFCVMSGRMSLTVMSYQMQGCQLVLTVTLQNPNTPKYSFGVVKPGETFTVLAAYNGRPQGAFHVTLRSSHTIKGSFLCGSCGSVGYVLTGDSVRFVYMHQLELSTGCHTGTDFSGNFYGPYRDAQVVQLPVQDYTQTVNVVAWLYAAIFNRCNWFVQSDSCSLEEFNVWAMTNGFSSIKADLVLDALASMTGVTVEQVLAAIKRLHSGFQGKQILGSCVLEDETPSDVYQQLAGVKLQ

## CC(C)C[C@H](NC(=O)OCc1ccccc1)C(=O)N[C@@H](C[C@@H]1CCNC1=O)C(O)S(=O)(=O)O (some centres unmarked) [GC-376]
In vitro
  CC50: > 100 µM

## CC(C)(C)NC(=O)N[C@H](C(=O)N1C[C@@H]2CCC[C@@H]2[C@H]1C(=O)N[C@@H](C[C@@H]1CCNC1=O)C(=O)C(N)=O)C(C)(C)C [ML1100]
Mature MHV M^pro
  IC50: 0.301 ± 0.152 µM
Mature SARSCoV2 M^pro
  IC50: 0.147 ± 0.008 µM
In vitro
  CC50: > 100 µM

## CC(C)(C)NC(=O)N[C@H](C(=O)N1C[C@H]2[C@@H]([C@H]1C(=O)NC(CC1CCC1)C(=O)C(N)=O)C2(C)C)C(C)(C)C (some centres unmarked) [boceprevir]
Mature MHV M^pro
  IC50: 15 ± 7 µM
In vitro
  CC50: > 100 µM

## CC(C)(C)NC(=O)N[C@H](C(=O)N1C[C@H]2[C@@H]([C@H]1C(=O)N[C@@H](C[C@@H]1CCNC1=O)C(=O)C(N)=O)C2(C)C)C(C)(C)C [ML1000]
Mature MHV M^pro
  IC50: 0.13 ± 0.025 µM
In vitro
  CC50: > 100 µM
